# Test system: UCMS mice
# Experiment: Morris Water Maze Test (MWMT) in UCMS mice
# Assay type: in vivo, ICR mice
# Experimental: Five-week-old male ICR mice (weight: 20-30 g), which were acquired from Nomura Siam International (Pathumwan, Bangkok, Thailand), were maintained at the Animal Unit of the Faculty of Pharmaceutical Sciences, Khon Kaen University. Mice were cared for in accordance with the Guiding Principles for the Care and Use of Animals (NIH Publications No. 80-23, revised in 2011). The facilities sustained a 12 h light/dark cycle, constant temperature (22 ± 2 °C), and humidity (45 ± 2%), with full access to food and drink. The current research was authorized by the Animal Ethics Committee for Use and Care of Khon Kaen University (IACUC-KKU-121/64) Mice in the stress groups received mild stressors for 6 weeks. […] In each trial, the latency to reach the platform (escape latency) and the distance covered were recorded for 5 days. […] After completion of the probe test, the time spent in the target quadrant (Q1) was counted as an index of reference memory.
substance,measurement,setting,value
vitamin E,"time spent in the target quadrant (MWMT probe, day 6)",100 mg/kg/day oral,significantly increased
same,escape latency (MWMT training),"three weeks of treatment, days 3, 4 and 5",significantly reduced

# Source: article PMC9103351, “Effects of the Bark Resin Extract of Garcinia nigrolineata on Chronic Stress-Induced Memory Deficit in Mice Model and the In Vitro Monoamine Oxidases and β-Amyloid Aggregation Inhibitory Activities of Its Prenylated Xanthone Constituents” (Molecules, 2022)
